# Measured values as given in patent US11253497B2, “Use of derivatives of polyunsaturated fatty acids as medicaments” (Lipopharma Therapeutics, S.L., priority 2009, dated 2022).
# What was measured:
# TNF-α = experiment: Production of TNF-α in serum of LPS-injected C57BL6/J mice; format: in vivo; conditions: LPS 20 μg i.p. (100%), 200 mg/kg p.o.
# Source text: (§1) Cyclooxygenase (COX) is an enzyme that can bind to membranes, taking certain lipids from there and catalyze its conversion into molecules that can have inflammatory activity. The binding of this enzyme to membrane lipids is due in part to the membrane lipid structure. The increased activity of COX 1 and 2 isoforms has been associated with the etiopathology of a number of inflammatory diseases by […] arachidonic acid metabolism to produce pro-inflammatory lipid mediators. The D-PUFA compounds of the present invention produced a series of cellular signals that alter the metabolism of arachidonic acid and, as a result, they inhibit the activity and expression of COX in monocytes in culture (Table 14 and FIG. 5A). […] For this purpose, C57BL6/J mice were treated with the various derivatives (200 mg/kg, p.o.,) after inducing an inflammatory reaction in them by intraperitoneal injection of 20 μg of bacterial lipopolysaccharide (LPS).
# [1] = Serum cholesterol, triglycerides and glucose in SHR rats (colorimetric); format: in vivo, rat; conditions: 200 mg/kg daily p.o., 28 days, untreated rats 100%
# Method: In a separate experimental series, SHR rats were treated with various compounds of the present invention (200 mg/kg daily, 28 days, p.o.) and the levels of cholesterol, triglycerides and glucose in serum were measured by colorimetric methods. It was observed that these compounds induce significant (and in many cases marked) reductions in the levels of these metabolites (Table 16).
# Values are expressed as percent, and in untreated (control) rats values were always considered as 100%.
# [2] = test system: brain cancer cell (glioma) U118; experiment: Brain cancer (glioma) U118 cell growth; format: cell-based; conditions: 72 hours of incubation
# Method in brief: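 Cell counts taken with compound, mean of three independent experiments. Applies to U118.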
# lung cancer cells A549 = experiment: Growth of lung cancer cells A549 (IC50); format: cell-based, human; conditions: 72 hours of incubation
# Method in brief: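 Cell counts taken with compound, mean of three independent experiments. Applies to A549 (RPMI 1640, 10% FBS, 37 °C, 5% CO2).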
# COX-2 = experiment: Expression of COX-2 in LPS-stimulated monocytes in culture; format: cell-based, human; conditions: positive control with LPS 100%
# Source text: FIG. 5A also presents a drawing showing the COX-2/COX-1 relationship as % of control (Y axis) for the following compounds (X-axis): OOA (2-hydroxy-oleic acid), OLA (182A1), OALA (183A1), OGLA (183A2), OARA (204A1), OEPA (205A1), ODHA (226A1). […] The reduction of this factor is directly related to the anti-inflammatory medication. The compounds are the same as in the left pane.
# as §1
# Inhibition of COX-2 expression in monocytes. Percentages of inhibition (compared to the positive control in the presence of LPS, 100%) of COX-2 protein levels (expression) by the various fatty acid derivatives.
# [3] = test system: apolipoprotein AI (apoA-I); experiment: Levels of apoA-I in SHR rats (RT-PCR); format: in vivo, rat; conditions: 200 mg/kg day p.o., 30 days, before treatment 100%
# Method: (§2) In a separate experimental series, it was studied the effect of D-PUFA molecules of the present invention on blood pressure of SHR rats. In these animals both, blood pressure and levels of apolipoprotein AI (apoA-I) were measured. For these experiments Spontaneously Hypertensive Rats (SHR) were treated for 30 days with vehicle (water control) or compounds of the invention (200 mg/kg day, p.o.). At the end of this period, the animals' blood pressure and serum levels of apoA-I were measured. […] For these experiments, non-invasive methods for determining blood pressure (cuff-tail method) and gene expression for apoA-I (RT-PCR) described in the literature (Terés et al., 2008) were used. The usefulness of the molecules of the present invention for the treatment of cardiovascular diseases is reinforced by its capacity for reducing the levels of serum cholesterol and triglycerides (see below).
# (§3) The average values of SHR before treatment were 214 mmHg and 100% respectively.
# α-synuclein = experiment: Expression of α-synuclein in neuronal cultures (cells P19); format: cell-based; conditions: untreated cells 100%
# [4] = test system: Spontaneously Hypertensive Rats (SHR); experiment: Blood pressure of SHR rats (cuff-tail method); format: in vivo, rat; conditions: 200 mg/kg day p.o., 30 days, before treatment 214 mmHg
# Method: as §2, §3
# P19 cells = experiment: NMDA-induced neuronal death in P19 cells; format: cell-based; conditions: NMDA alone 100% death, control without NMDA 0%; negative values = proliferation
# [5] = test system: breast cancer cells MDA-MB-231; experiment: Growth of breast cancer cells MDA-MB-231; format: cell-based; conditions: 72 hours of incubation
# Method in brief: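 Cell counts taken with compound, mean of three independent experiments. Applies to MDA-MB-231.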
Compound,Production of TNF-α in serum (TNF-α) [%],Cholesterol in serum (top number) [1] [%],Glucose in serum (bottom number) [1] [%],Triglycerides in serum (central number) [1] [%],IC50 [2] [µM],IC50 (lung cancer cells A549) [µM],"COX-2 protein levels (expression), percentages of inhibition compared to positive control (COX-2) [%]",Levels of apoA-I [3] [%],Expression of α-synuclein (α-synuclein) [%],Blood pressure [4] [mm Hg],Neuronal death (P19 cells) after treatment with NMDA (P19 cells) [%],IC50 [5] [µM]
CCCCCC=CCC=CCC=CCCCC(O)C(=O)OP(=O)(OCC)OCC (stereo not drawn) [183F2],86,84,85,87,401,259,36,279,52,191,−36,181
CCC=CCC=CCC=CCCCCCCC(C)C(=O)[O-].[Na+] (stereo not drawn) [183L1],86,82,85,77,231,285,65,125,76,205,−21,306
CCCCCC=CCC=CCC=CCCCC(C)C(=O)[O-].[Na+] (stereo not drawn) [183L2],91,83,92,79,460,283,48,268,73,194,−29,173
CCC=CCC=CCC=CCCCCCCC(OC=O)C(=O)OCC (stereo not drawn) [183V1],84,75,79,70,274,320,79,152,87,199,−9,326
CCCCCC=CCC=CCC=CCCCC(OC=O)C(=O)OCC (stereo not drawn) [183V2],87,84,88,92,402,291,68,282,89,198,−18,241
CCCCCC=CCC=CCC=CCC=CCCC(O)C(=O)OP(=O)(OCC)OCC (stereo not drawn) [204F1],46,76,84,81,275,392,41,163,52,199,−46,326
CCCCCC=CCC=CCC=CCC=CCCC(C)C(=O)[O-].[Na+] (stereo not drawn) [204L1],49,83,91,82,247,326,47,188,69,197,−27,332
CCCCCC=CCC=CCC=CCC=CCCC(OC=O)C(=O)OCC (stereo not drawn) [204V1],42,84,87,81,345,326,43,161,82,198,−11,352
CCC=CCC=CCC=CCC=CCC=CCCC(O)C(=O)OP(=O)(OCC)OCC (stereo not drawn) [205F1],80,71,82,83,498,338,47,319,57,195,−44,275
CCC=CCC=CCC=CCC=CCC=CCCC(C)C(=O)[O-].[Na+] (stereo not drawn) [205L1],76,79,85,78,435,362,53,376,67,198,−35,253
CCC=CCC=CCC=CCC=CCC=CCCC(OC=O)C(=O)OCC (stereo not drawn) [205V1],84,85,84,79,510,325,76,315,81,191,−27,298
